Experimental data: patent publication US20110212108A1, “NEUREGULIN/ERBB SIGNALING AND INTEGRIN” (THE REGENTS OF THE UNIVERSITY OF CALIFORNIA, priority 2008, published 2011)
Entries after “also recorded” stand apart in the source; their conditions may differ.

B1: WT NRG1α (175-241): wild type human neuregulin 1 fragment, residues 175-241 of SEQ ID NO:4 (SEQ ID NO:5), entire EGF-like motif and α domain (protein)
chain: GTSHLVKCAEKEKTFCVNGGECFMVKDLSNPSRYLCKCQPGFTGARCTENVPMKVQNQEKAEELYQK
modifications: integrin-binding site within human neuregulin, residues 175-241of human neuregulin 1alpha, long version

What was measured:
[1] = test system: B-16 F10 Cells; experiment: B16F10 cell proliferation, MTS assay; type: cell-based, mouse; details: 24 hours
Protocol: FIG. 10. […] B-16 F10 Cells were starved for 5 days in DMEM+1% FBS medium, and then added 3KE (175-222) and WT (175-222) NRG1 at indicated concentrations for 24 hours by MTS assays. P=0.0354 (between wt and 3KE+wt) and P<0.0001 (between wt and 3KE) by 2-way ANOVA.
Cell proliferation: cells were starved by culturing DMEM with low-level FCS (e.g., 0.4%) overnight and then treated with the wt or mutant NRG1 (175-222) (up to 100 ng/ml). The cells were harvested in 15 min to 6 h after stimulation and cell lysates analyzed by western blotting with antibodies specific to signaling molecules. Alternatively, cells were cultured for 24-48 h after stimulation for testing proliferation or cell viability by MTS assays. Statistical analysis and calculation of kinetic constants were performed using Prism software (Graphpad).

[2] = test system: estrogen-dependent and independent breast cancer cell lines; experiment: Growth of breast cancer cell lines; type: cell-based; details: several estrogen-dependent and independent lines
[3] = test system: integrin β3 cytoplasmic domain; experiment: Tyr-phosphorylation of integrin β3 cytoplasmic domain in M21 cells, Western blotting; type: cell-based, human; details: 10 ng/ml, serum-starved, 30 min
Protocol: FIG. 13. Wt NRG1 (175-222) enhanced Tyr-phosphorylation of the integrin β3 cytoplasmic domain, while 3KE (175-222) suppressed it in M21 cells. Serum-starved M21 cells were stimulated with 10 ng/ml wt or 3KE NRG1 (175-222). Tyr-phosphorylation of β3 was determined by Western blotting of cell lysates.
It has recently been reported that Tyr phosphorylation of the β3 tail plays a role in VEGF and insulin-like growth factor-1 (IGF1) (Clemmons et al. 2007; Mahabeleshwar et al. 2007). It was tested if NRG1 signaling requires Tyr-phosphorylation of the β3 tail in M21 cells. As shown here, the β3 tail is constitutively Tyr-phosphorylated in serum-starved cells.

[4] = test system: CHO cells; experiment: ERK1/2 activation in CHO cells, Western blotting; type: cell-based, Chinese hamster; details: serum-starved
Protocol: (§1) FIG. 14. […] ErbB4 was stably expressed in CHO cells (designated ErbB4-CHO cells). ErbB4 was detected in a cell lysate of ErbB4-CHO cells by western blotting (top). Serum-starved CHO or ErbB4-CHO cells were stimulated with wt NRG1 (175-222) or the 3KE (175-222) mutant and ERK1/2 activation was measured by Western blotting.
(§2) CHO cells express endogenous ErbB2 and ErbB3, but no ErbB4. CHO cells that express ErbB4 were generated by transfecting ErbB4 expression vector (designated ErbB4-CHO). […] It is therefore believed that the direct binding of integrin […] the Ras-MAP kinase pathway in ErbB4-CHO cells.

[5] = test system: CHO cells that express recombinant human ErbB4 (ErbB4-CHO); experiment: ERK1/2 activation in ErbB4-CHO cells, Western blotting; type: cell-based, Chinese hamster; details: serum-starved
Protocol: as §1, §2
Transfection: ErbB4 stably transfected cells were generated by transfecting ErbB4 expression plasmid pCDNA3.1 (with a neo gene) to cells and selected for G418 resistance. Western blotting analysis were performed as described above, and mutagenesis was carried out by the Quick-Change method.

[6] = target: T1, CHO cells that express human β1 (β1-CHO) (Homo sapiens, UniProt P05556); experiment: Cell adhesion assay, β1-CHO cells; type: cell-based
T1 construct: expressed in transfected cells; host or cells: CHO
T1 sequence (P05556 21-798): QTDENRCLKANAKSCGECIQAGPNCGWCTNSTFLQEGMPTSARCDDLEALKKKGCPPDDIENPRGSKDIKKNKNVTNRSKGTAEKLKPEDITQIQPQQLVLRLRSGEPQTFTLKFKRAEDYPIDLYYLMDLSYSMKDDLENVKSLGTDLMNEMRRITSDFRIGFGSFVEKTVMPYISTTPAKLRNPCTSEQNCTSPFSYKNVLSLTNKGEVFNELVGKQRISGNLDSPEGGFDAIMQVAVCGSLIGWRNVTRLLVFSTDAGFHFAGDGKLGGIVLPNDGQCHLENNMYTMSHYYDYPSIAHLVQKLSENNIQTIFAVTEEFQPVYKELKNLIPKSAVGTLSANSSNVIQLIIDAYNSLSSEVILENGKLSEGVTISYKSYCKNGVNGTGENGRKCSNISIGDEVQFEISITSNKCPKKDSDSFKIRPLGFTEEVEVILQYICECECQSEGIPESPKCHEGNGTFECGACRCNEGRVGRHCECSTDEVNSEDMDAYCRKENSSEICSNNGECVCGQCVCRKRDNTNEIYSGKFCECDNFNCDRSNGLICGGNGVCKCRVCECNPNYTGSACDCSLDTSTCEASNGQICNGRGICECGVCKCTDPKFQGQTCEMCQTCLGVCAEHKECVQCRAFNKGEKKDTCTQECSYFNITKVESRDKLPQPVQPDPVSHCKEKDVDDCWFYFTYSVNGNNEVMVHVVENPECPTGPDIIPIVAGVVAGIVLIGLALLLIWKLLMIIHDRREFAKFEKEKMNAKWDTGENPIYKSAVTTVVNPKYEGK
Protocol: FIG. 3. Adhesion of CHO cells that express human β1 (β1-CHO) or β1-3-1 (β1-3-1-CHO) to wt NRG1 (175-222). The β1-3-1 mutation changes the specificity of β1 integrins to that of β3 integrins. Cell adhesion was performed as described herein. β1-3-1-CHO cells adhered to wt NRG1 (175-222) and this binding was blocked by anti-human β1 antibody AIIB2, but not by purified mouse IgG (mIgG). BSA: BSA as a control was coated instead of NRG1 (175-222).
CHO or K562 cells expressing different recombinant integrins were previously known and available (Zhang et al. 1998; Tarui et al. 2006). Labeling of proteins with FITC or […] was performed according to manufacturers' instructions. Flow cytometry was performed as described above. Also, adhesion assays as described above were used to confirm the findings using flow cytometry.
Cell adhesion and soluble integrin binding assays were performed as described previously (Mori, et al., 2008). NRG1α (175-241) was immobilized to wells of 96-well microtiter plate overnight at 4° C. in 0.1 M carbonate buffer, pH 2 9.4. Remaining protein binding sites were blocked by incubating with 200 μl of 0.1% BSA in PBS for 60 min at room temperature. […] After rinsing the wells with the same buffer, bound integrins were determined by horseradish peroxidase (HRP)-conjugated anti-His tag mouse IgG and substrate 3,3′,5,5′-tetramethylbenzidine of HRP.

Row | Molecule | Induction of cell proliferation in B16F10 cells [1] | Suppression of cell proliferation in B16F10 cells ([1]; P=0.0354 between wt and 3KE+wt) | Growth of breast cancer cells [2] | Tyr-phosphorylation of the integrin β3 tail in M21 cells [3] | ERK1/2 activation in (mock-transfected) CHO cells [4] | ERK1/2 activation in (mock-transfected) CHO cells ([4]; listed as 3KE (175-222)) | ERK1/2 activation in ErbB4-CHO cells [5] | Adhesion of β1-CHO cells to the immobilized protein [6] | ERK1/2 activation in ErbB4-CHO cells ([5]; listed as wt NRG (175-222))
1 | 3KE (175-222): NRG1 (175-222) with Lys181/Lys185/Lys187 mutated to Glu; GTSHLVECAEEEETFCVNGGECFMVKDLSNPSRYLCKCQPGFTGARCT (SEQ ID NO:11) (integrin-binding site within human neuregulin, 3KE mutant, short version) | did not induce them | Suppression of cell proliferation | did not | suppressed it | suppressed | suppressed ERK1/2 activation | activated ERKI/2; also recorded: enhanced ERK1/2 activation | – | –
2 | wt NRG1 (175-222): wild type human neuregulin 1 fragment, EGF-like domain, residues 175-222 of SEQ ID NO:4 (SEQ ID NO:3) (GTSHLVKCAEKEKTFCVNGGECFMVKDLSNPSRYLCKCQPGFTGARCT; integrin-binding site within human neuregulin 1 EGF-like region and portion of alpha domain, residues 175-222 of human neuregulin 1 alpha) [reference compound] | induced cell proliferation | – | enhanced the growth of breast cancer cells | enhanced levels of Tyr-phosphorylation | enhanced ERK1/2 activation | – | suppressed ERK1/2 | did not | suppressed
3 | B1 | – | – | – | – | – | – | – | did not | –
